Results taken from patent US9963660B2, “Method of cleaning with enhanced bacteriostatic action using a composition of alcohol and lactate esters” (Vertec Biosolvent, Inc., priority 2015, dated 2018).

Tests used:
[1] = for Viscosity: @ 25 C.
From the text: Properties of solvents are often evaluated and expressed in measured and calculated values of solubility parameters and a few other physical constants.

[2] = test system: Listeria Monocytogenis ATCC 19115; test: MiniTox bacteriostatic (MIC) test in microtiter plates; type: cell-based; conditions: diluted to the same extent as the blend
From the text: (§1) Methods to determine minimum inhibitory concentrations (MIC) of biocides or bacteriostatic agents that work in processing liquids to inhibit biological growth have been developed and optimized (U.S. Pat. No. 5,206,151). Typically, such MIC determinations involve (a) obtaining a known volume aliquot of the contaminated aqueous system and (b) adding thereto a known amount of an oxidation reduction indicator dye, which indicator dye is capable of reacting with dehydrogenase enzymes produced by the microbiological organisms, and also (c) adding sufficient nutrients capable of accelerating microbiological organism activity, thereby forming a reaction product between reducing enzymes and the oxidation-reduction indicator dye. Multiple aliquots of the indicator dye treated and nutrient treated, aqueous system are transferred to a microtitration plate containing multiple sample wells (d), each well containing but one of the multiple aliquots. (e) Serially diluted amounts of at least one antimicrobial agent is added to at least one column (or row) of these sample wells on the titration plate, provided that a single column (or row) is treated with only one antimicrobial agent, that at least one column (or row) is left untreated to thereby form a treated titration plate. The treated titration plate is incubated at a temperature essentially equivalent to the temperature of the contaminated aqueous system from which the aliquot was originally taken and maintained for a period of time sufficient to develop the change in the indicator dye color by the reaction of the indicator dye with reducing enzymes produced by nutrient acceleration of microbiological metabolism (f). The first change in color in dye relative to the untreated column is noted (g) to determine the minimum inhibitor concentration of antimicrobial agent that inhibits growth of microbiological organism contained in the contaminated aqueous system. Such a method is optimized under the Trademark of MiniToxTM and tests are routinely practiced and results provided by microbiological testing laboratories such as: The MicroStar Lab Ltd located at 130 Erick Street in Crystal Lake, Ill. 60014. […] This solution was kept as is at room temperature and hydrolysis of the ester continued. This solution was serially diluted with broth and media components for the MiniTox tests in microtiter plates. Two bacterial cultures Salmonella Choleraesuis ATCC 10708 and Listeria Monocytogenis ATCC 19115 were used for the studies. Bacteria of the Salmonella species are known pathogens that contaminate meat and vegetable types of food and Listeria species are known to contaminate milk and related foods.

[3] = test system: Salmonella Choleraesuis ATCC 10708; test: as above; type: cell-based; conditions: diluted to the same extent as the blend
From the text: as §1

[4] = Peanut butter removal from coated metal mesh strips (cleaning/solvating action); conditions: neat solvents, 40° C., 20 minutes dip, 90 minutes drying
From the text: Peanut butter is a complex mixture of fats, carbohydrates and proteins that are emulsified in processing equipment under controlled conditions. Because of its composition that contains all the major food groups and because the product is made by controlled food processing methods, peanut butter was chosen for an initial cleaning examination. Commercially available […]® peanut butter made by Best Foods Company was used. Commercially available metal screen mesh (size 20 mesh) was cut into small (25 mm×75 mm), equal sized strips that were dipped into heated (about 50° C.) peanut butter and then drip dried in air. […] The strips were then dried under forced air at room temperature and their weights were measured periodically. After 90 minutes of drying the test results were evaluated to determine the comparative differences between the effects of the solvent compositions. Commercial grade of ethanol is typically denatured by small quantities of additives. Ethyl acetate is an approved denaturant for ethanol and it is non-toxic for food and biological related applications. In all of the examples for this invention the ethanol used was denatured by about 5% (w/w) ethyl acetate.

| SMILES | SPh (hydrogen bonding parameter) [1] | Surface Tension [1] | Viscosity [1] | Bacteriostatic activity alone, diluted to the same extent [2] | Bacteriostatic activity alone, diluted to the same extent [3] | Percent Removal [4] | SPd (Disperse solubility parameter) [1] | SPo (Hildebrand solubility parameter) [1] | SPp (Polar solubility parameter) [1] |
| --- | --- | --- | --- | --- | --- | --- | --- | --- | --- |
| CCOC(=O)C(C)O (stereo not drawn) [Ethyl lactate] | 6.1 | 28.6 mN/m | 2.41 Cp | does not exhibit bacteriostatic activity | does not exhibit bacteriostatic activity | 7.3% |  |  |  |
| CCO [Ethanol] | 9.5 | 22.2 mN/m | 0.43 Cp | does not exhibit bacteriostatic activity | does not exhibit bacteriostatic activity | 20.4% | 7.7 | 13.0 | 4.3 |
